Laboratory results reported in PMC10226132, “First-in-Class Selective Inhibitors of the Lysine Acetyltransferase KAT8” (Journal of Medicinal Chemistry, 2023).

Key:
[1] = HPLC-based analysis of thiol reactivity; assay type: physicochemical; conditions: 0.5 mM compound, 2 mM DTT, BME or GSH, pH 7.5, 1, 8 or 24 h at room temperature
Experimental: Compounds 19 and 34 were dissolved in a solution containing 100 mM NaCl and 40 mM Tris·HCl (pH 7.5) with the addition of DTT, BME, or GSH (each at 2 mM) to a final concentration of 0.5 mM and incubated for 1, 8, and 24 h at rt. HPLC analysis was then performed at three wavelengths (254, 286, and 395 nm) under the same conditions described in the “Chemistry” paragraph of the Experimental Section.

H3K27Ac in HT29 cells = experiment: Immunofluorescence of H3K27Ac in HT29 cells; assay type: cell-based, human; conditions: 24 h, vs control
Experimental: For IF analysis, 1 × 10^5 HT-29 cells were grown on sterile coverslips. After 24 h, cells were exposed to different compounds for 24 h. IF staining for different acetylated lysine residues of histone H3 (H3K27Ac) and H4 (H4K16Ac) were carried out on PFA-fixed cells blocked with 20% goat serum in PBS and incubated overnight at 4 °C with primary rabbit monoclonal antibodies histone H3K27Ac (D5E4, Rabbit mAb#8173) and H4K16Ac (E2B8W, Rabbit mAb#13534, Cell Signalling Technology). Primary antibodies were detected using rabbit anti-IgG secondary antibodies conjugated with Cy3 (Jackson Immunoresearch 711-165-152). DNA was stained using 0.05 μg/mL 4′,6-diamidino-2-phenylindole (DAPI). The samples were acquired using an Olympus AX70 (Olympus America Inc.) microscope. Serial Z stacks of 0.4 μm thickness were acquired, taking care to cover the entire cell volume. For quantification of fluorescence intensity signals, images of untreated or treated cells were analyzed and processed using opensource Cell Profiler 4.1.3 image analysis software (https://cellprofiler.org/) to measure fluorescence-integrated intensity values for antibody binding relating to individual cells as previously reported.[67]

H460 cells = experiment: MTT cell proliferation assay, H460; assay type: cell-based, human; conditions: 10, 25, 50, 100 μM, 72 h
Source text: Human commercially available AML U937, breast cancer MCF7, lung adenocarcinoma NCI-H460, H1299 and A-549, glioblastoma U251, B lymphocyte AHH1 cell lines were maintained in compete 10% foetal bovine serum (FBS,) RPMI 1640 (Euroclone, Milan, IT) medium. Human commercially available colon cancer HCT116 and HT29 lines and cervix adenocarcinoma HeLa cells were maintained in compete 10% FBS Dulbecco’s Modified Eagle Medium (DMEM) high glucose medium (Euroclone). L-Glutamine, FBS, and penicillin streptomycin mixture added to medium were obtained from Euroclone. All cell lines were cultured at 37 °C in a humidified atmosphere of 5% CO2:95% air and were tested for mycoplasma contamination routinely by RT-PCR.
(§1) For analysis of cell proliferation, cells were plated in sextuplicate on 96-well plates in complete media. After 24 h, cells were exposed to different drugs for 72 h. The inhibitory effect of different drugs was assessed by MTT (Sigma, St. Louis, MO, USA) colorimetric assays as previously reported.[67] Aqueous DMSO (0.5% v/v) was used as a control (untreated). The results are reported as “viability of drug-treated cells/viability of untreated cells” × 100 and represent the average ±SD of three independent experiments. IC50 values were using fitted by nonlinear regression using GraphPad Prism 8.0.

[2] = tested on: human intestinal epithelial cells (InEpC); experiment: Proliferation of human intestinal epithelial cells (InEpC); assay type: cell-based; conditions: 25, 50, 100, 200 μM, 72 h
Experimental: as §1

[3] = tested on: normal human lung fibroblasts (NHLF); experiment: Proliferation of normal human lung fibroblasts (NHLF); assay type: cell-based; conditions: 25, 50, 100, 200 μM, 72 h
Experimental: as §1

HeLa cells = experiment: Cell cycle analysis by propidium iodide staining, HeLa; assay type: cell-based, human; conditions: 72 h
Experimental: (§2) For the analysis of the progression of cells through cell cycle phases and sub-G1 peak identification, 24 h after plating, cells were treated with the different compounds. After 72 h, both floating and adherent cells were collected and fixed with cold 70% ethanol. At least 24 h after fixation, cells were incubated with 0.025 mg/mL Propidium Iodide for 15 min at room temperature and analyzed. For Annexin V analysis, 24 h after plating, cells were treated with 50 and 100 μM of the compounds. In the case of chloroquine experiments, 10 μM chloroquine (Sigma-Aldrich, A9165) was added 30 min before compounds. 72 h after treatment, both floating and adherent cells were collected and stained with an Annexin V-FITC apoptosis detection kit (ENZO #ALX-850-020-KI). Samples were incubated 15 min in the dark at rt, and 10,000 events were then analyzed.

HT29 cells = experiment: Annexin V/PI analysis, HT29; assay type: cell-based, human; conditions: 50 and 100 μM, 72 h, compared to control
Experimental: as §2

H1299-EGFP-LC3 cells = experiment: Fluorescence microscopy of autophagosomes in EGFP-LC3 H1299 cells; assay type: cell-based, human; conditions: increasing doses, 48 h
Experimental: The stable EGFP-LC3 H1299 cell line was used to detect autophagic structures by fluorescence spinning disk microscopy. Cells were grown on glass coverslips, treated with compounds for 48 h and fixed in 3.7% formaldehyde (Sigma, F1635) DNA was counterstained with 0.05 μg/mL DAPI (4,6-diamidino-2-phenylindole; Sigma-Aldrich, D9542). At least 500 cells were counted for each experimental point, and cells showing ≥15 dots were considered positive. Dots were counted using a pipeline created in a previous work on the CellProfiler software.[68] Data are presented as median with interquartile range. Samples were observed under a Nikon Eclipse Ti2 microscope with a 60× (1.4 NA) objective, equipped with a CrestOptics X-Light V3 confocal spinning disk and a back illuminated Kinetix sCMOS camera.

[4] = tested on: LC3 and p62 in HCT116 cells; experiment: Western blot of autophagic markers in HCT116 cells; assay type: cell-based, human; conditions: increasing doses, 48 h
Experimental: For WB experiments, the cells were lysed in RIPA buffer supplemented with 1× […] protease inhibitor cocktail (Sigma-Aldrich, S8830); 20 μg of total protein was resolved in 13.5% gels by SDS-PAGE. Then, the proteins were transferred to nitrocellulose membranes (Biorad Laboratories). Membranes were blocked for 1 h and incubated overnight with the appropriate primary antibody at 4 °C. After incubation, membranes were washed and incubated with the appropriate secondary antibody (Biorad Laboratories) for 1 h at room temperature. Following primary rabbit monoclonal antibodies H4K16Ac (1:1000, E2B8W, Rabbit mAb#13534, Cell Signalling Technology), KAT8 (1:1000, D5T3R Rabbit mAb #46862 Cell Signalling Technology), GAPDH (1:1000, sc-32233, Santa Cruz Biotechnologies), anti-LC3B (Sigma-Aldrich, L7543), anti-SQSTM1/p62 (Santa Cruz Biotechnology, sc-28,359), and anti-GAPDH (Santa Cruz Biotechnology, sc-32,233). Secondary antibodies: anti-mouse (Bio-Rad Laboratories, 1,706,515) or anti-rabbit (Bio-Rad Laboratories, 1,706,516) IgG-horseradish peroxidase-conjugated antibodies. Detection was performed by ECL Western Blotting Substrate (Biorad Laboratories). Images of blots were acquired through the ChemiDoc Imaging Systems (Biorad Laboratories). The band signals were quantified using ImageJ, and values were normalized to relative controls, depending on the analysis.

| Compound | reaction with thiol-containing nucleophiles (HPLC) [1] | levels of histone H3K27Ac (IF) (H3K27Ac in HT29 cells) | antiproliferative activity in H460 (H460 cells) | effect on proliferation of InEpC [2] | effect on proliferation of NHLF [3] | change in the different stages of cell cycle, HeLa (HeLa cells) | apoptotic cell population (Annexin V), HT29 (HT29 cells) | EGFP-LC3 dots per cell (H1299-EGFP-LC3 cells) | LC3-II/-I ratio and p62 autophagic markers (WB), HCT116 [4] |
| --- | --- | --- | --- | --- | --- | --- | --- | --- | --- |
| O=C(O)c1ccc(N2N=C(c3ccccc3)/C(=C/c3ccc[nH]3)C2=O)cc1 [Compound 34, (Z)-4-(4-((1H-Pyrrol-2-yl)methylene)-5-oxo-3-phenyl-4,5-dihydro-1H-pyrazol-1-yl)benzoic Acid] | no evidence of reaction | no significant differences | essentially inactive | did not significantly affect the proliferation | did not significantly affect the proliferation | no significative change | only a slight increase in apoptotic cell population | significantly increased | modulation of the LC3-II/-I ratio and p62 autophagic markers |
| CC1=NN(c2ccc(C(=O)O)cc2)C(=O)/C1=C\c1ccc[nH]1 [Compound 19, (Z)-4-(4-((1H-Pyrrol-2-yl)methylene)-3-methyl-5-oxo-4,5-dihydro-1H-pyrazol-1-yl)benzoic Acid] | no evidence of reaction | no significant differences | inhibited H460 proliferation | did not significantly affect the proliferation | did not significantly affect the proliferation | no significative change | only a slight increase in apoptotic cell population | significantly increased | modulation of the LC3-II/-I ratio and p62 autophagic markers |
